The values that follow come from US20140309221A1, “METHOD OF INHIBITING HAMARTOMA TUMOR CELLS” (DANA-FARBER CANCER INSTITUTE, INC., priority 2011, published 2014).

The subject of test [1] is PHTS symptoms in K14-cre-Pten f/f mice. The test can be described thus: Early administration: prevention of PHTS symptom development in K14-cre-Pten f/f mice. The class given is in vivo. The following applies: 25 mg/kg daily by oral gavage beginning at 3 weeks of age. Here is the method:
(§1) 4-(Trifluoromethyl)-5-(2,6-dimorpholinopyrimidin-4-yl)pyridin-2-amine powder was dissolved in 1 volume of NMP (1-methyl-2-pyrrolidone). After dissolution (if needed, in warm water), add 9 volumes of PEG300. The final ratio is: NMP 10%/PEG300 90%.
Pten f/f mice (Lesche, R., et al., Cre/loxP-mediated inactivation of the murine Pten tumor suppressor gene. Genesis, 2002. 32(2): 148-9) were crossed with K14-cre mice (Jonkers, J., et al., Synergistic tumor suppressor activity of BRCA2 and p53 in a conditional mouse model for breast cancer. Nat Genet, 2001. 29(4): 418-25) to generate K14-Cre Pten f/f mice in which the floxed Pten allele is deleted specifically in the keratinocytes by the K14-driven Cre recombinase. […]
K14-cre-Pten f/f mice were treated daily with 25 mg/kg 4-(trifluoromethyl)-5-(2,6-dimorpholinopyrimidin-4-yl)pyridin-2-amine by oral gavage beginning at 3 weeks of age and the development of PHTS symptoms monitored. […]

For test [2] the test system is unchanged. The test can be described thus: Administration to K14-cre-Pten f/f mice with fully developed PHTS: relief of symptoms. The class given is in vivo. Here is the method: as §1
Pten f/f mice (Lesche, R., et al., Cre/loxP-mediated inactivation of the murine Pten tumor suppressor gene. Genesis, 2002. 32(2): 148-9) were crossed with K14-cre mice (Jonkers, J., et al., Synergistic tumor suppressor activity of BRCA2 and p53 in a conditional mouse model for breast cancer. Nat Genet, 2001. 29(4): 418-25) to generate K14-Cre Pten f/f mice in which the floxed Pten allele is deleted specifically in the keratinocytes by the K14-driven Cre recombinase. These mice were further crossed with p110a f/f (Zhao, J. J., et al., The p110 alpha isoform of PI3K is essential for proper growth factor signaling and oncogenic transformation. Proc Natl Acad Sci USA, 2006. 103(44): 16296-300) and p110b f/f mice (Jia, S., et al., Essential roles of PI(3)K-p110beta in cell growth, metabolism and tumorigenesis. Nature, 2008) to generate K14-cre Pten f/f, K14-cre Pten f/f; p110a f/f, K14-cre Pten f/f; p110b f/f, and K14-cre-Pten f/f; p110a f/f; p110b f/f mice. Keratinocyte-specific deletion of Pten results in multiple dermal lesions in the K14-cre Ptenf/f mice that resemble multiple skin hamartomas of PHTS. […]

“Also recorded” adds a separate entry of the source.

Turning to `Nc1cc(C(F)(F)F)c(-c2cc(N3CCOCC3)nc(N3CCOCC3)n2)cn1` [COMPOUND A, 4-(trifluoromethyl)-5-(2,6-dimorpholinopyrimidin-4-yl)pyridin-2-amine], the “development of PHTS symptoms (PHTS free survival)” value was “remained free of PHTS symptoms” in test [1] (n=12) and “remained free of PHTS symptoms; also recorded: entirely blocked appearance of PHTS” in test [1] (n=12, listed as 4-(trifluoromethyl)-5-(2,6-dimorpholinopyrimidin-4-yl)pyridin-2-amine). Moreover, in test [2] (K14-cre-Pten f/f mice with fully developed PHTS (12-14 weeks of age), 45 mg/kg daily by oral gavage for 4 weeks, 45 mg/kg), the “relief of PHTS symptoms” value is recorded as “dramatically relieved the PHTS symptoms; also recorded: completely reversed the phenotype of PHST”. In test [2] (K14-cre-Pten f/f mice with fully developed PHTS, 45 mg/kg daily by oral gavage, end of 4 weeks), the “PHTS symptoms at the end of the 4-week treatment” value is “substantially or completely reduced”.
